Data: PMC9097471, “Development of Selective Phosphatidylinositol 5-Phosphate 4-Kinase γ Inhibitors with a Non-ATP-competitive, Allosteric Binding Mode” (Journal of Medicinal Chemistry, 2022)
pIC50: −log10 of the molar value. Values after ≈ are worked out from the molar mass of the structure shown. Read-outs that look alike come from different tables or passages of the source.

How the values were obtained:
PI5P4Kβ = target: T1, PI5P4Kβ (Homo sapiens, UniProt P78356); parameters: method as in ref 23 (a number printed in a supplementary file, which may have a reference list of its own: not looked up in the article's list); details: KINOMEscan @ 10 μM; cited from earlier work
T1 sequence (P78356 1-416): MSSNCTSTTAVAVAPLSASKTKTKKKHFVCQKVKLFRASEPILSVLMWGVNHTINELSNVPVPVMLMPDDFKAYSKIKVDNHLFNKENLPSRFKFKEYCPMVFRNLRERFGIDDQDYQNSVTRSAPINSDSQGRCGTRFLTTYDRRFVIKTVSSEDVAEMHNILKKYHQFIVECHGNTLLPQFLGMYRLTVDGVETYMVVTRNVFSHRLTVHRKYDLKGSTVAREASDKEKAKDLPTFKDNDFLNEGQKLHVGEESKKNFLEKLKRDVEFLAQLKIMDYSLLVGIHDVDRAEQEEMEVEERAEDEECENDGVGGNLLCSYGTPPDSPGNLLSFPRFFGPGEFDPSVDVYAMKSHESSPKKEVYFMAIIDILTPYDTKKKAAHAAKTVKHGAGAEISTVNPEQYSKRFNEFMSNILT

PI5P4Kγ-WT [1] = target: T2, PI5P4Kγ-WT (Homo sapiens, UniProt Q8TBX8); assay: InCell Pulse cellular target engagement (thermal stabilisation) in HEK293 cells; type: cell-based; details: InCell Pulse, new data
T2 sequence (Q8TBX8 1-421): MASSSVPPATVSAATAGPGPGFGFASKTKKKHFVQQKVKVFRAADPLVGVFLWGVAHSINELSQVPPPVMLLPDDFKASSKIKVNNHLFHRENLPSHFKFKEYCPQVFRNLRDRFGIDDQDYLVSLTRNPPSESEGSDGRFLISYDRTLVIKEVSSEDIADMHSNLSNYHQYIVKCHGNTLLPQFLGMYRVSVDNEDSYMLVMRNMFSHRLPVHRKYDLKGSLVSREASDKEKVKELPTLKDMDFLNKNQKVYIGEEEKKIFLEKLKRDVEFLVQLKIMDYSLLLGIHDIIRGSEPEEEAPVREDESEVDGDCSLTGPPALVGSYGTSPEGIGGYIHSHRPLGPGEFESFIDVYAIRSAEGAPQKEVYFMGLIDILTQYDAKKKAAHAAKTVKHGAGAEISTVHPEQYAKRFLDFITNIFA
Description: The binding of compounds to PI5P4Kγ in intact cells was assessed using an InCell Pulse thermal stabilisation assay (DiscoverX). […] The plate was then incubated for 60 min in the dark prior to luminescence reading using a Pherastar FSX plate reader (BMG Labtech).
(§1) Statistical analysis was performed using nonparametric testing in Prism 8 (GraphPad). Activity pIC50 values and in vivo binding pEC50 values were estimated using a 4-parameter fit (Dotmatics).

PI5P4Kβ-WT = target: T3, PI5P4Kβ-WT (Homo sapiens, UniProt P78356); assay: ADP-Glo inhibition assay; details: for PI5P4Kβ pIC50: ADP-Glo
T3 sequence (P78356 1-416): T1 sequence (P78356 1-416)
Description: (§2) To enable direct comparisons, Promega’s ADP-Glo reporter assay was developed using a mutant form of the kinase. […] To mitigate concerns about being misled by the use of the PI5P4Kγ+ construct and the possible introduction of PI5P4Kα activity into the molecules, our screening cascade included the measurement of ADP-Glo activity at PI5P4Kα-WT (and PI5P4Kβ-WT to fully understand emerging selectivity profiles).

PI5P4Kγ+ = target: T4, PI5P4Kγ+ (Homo sapiens, UniProt Q8TBX8, D138G/D197E/E133P/E135D/E153T/E196G/G136S/G139A/N195G/S132L/S134N); assay: ADP-Glo inhibition assay; type: biochemical; details: for pIC50 / IC50: ADP-Glo; for pIC50: new data, read-out: PI5P4Kγ+ IC50; for IC50: mutant PI5P4Kγ+ construct, read-out: PI5P4Kγ+ pIC50 (converted)
T4 construct: GST (N, cleaved yes); made in house; host or cells: E. coli BL21(DE3), pGEX6P
T4 sequence (Q8TBX8 with tags, fused parts or gaps INS131LPN/S132D/E133S/S134Q/E135A/G136R/D138G/G139A/E153T/N195G/E196G/D197E): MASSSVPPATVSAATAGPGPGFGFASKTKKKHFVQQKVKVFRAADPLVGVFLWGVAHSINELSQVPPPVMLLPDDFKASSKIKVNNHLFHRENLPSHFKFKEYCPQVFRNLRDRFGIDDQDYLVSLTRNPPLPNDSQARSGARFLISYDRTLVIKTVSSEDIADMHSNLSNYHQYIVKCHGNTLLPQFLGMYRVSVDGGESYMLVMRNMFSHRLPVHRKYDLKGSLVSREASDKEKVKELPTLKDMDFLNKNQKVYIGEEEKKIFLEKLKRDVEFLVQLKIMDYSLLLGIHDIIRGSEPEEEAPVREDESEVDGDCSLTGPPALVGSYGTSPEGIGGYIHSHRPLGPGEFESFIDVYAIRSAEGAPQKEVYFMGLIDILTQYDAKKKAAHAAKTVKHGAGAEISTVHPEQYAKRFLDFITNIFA
Description: Recombinant mutant PI5P4Kγ+ was prepared essentially as described previously.[25] […] Cultures were induced with 0.4 mM IPTG and probe sonicated in the presence of protease inhibitors. The GST fusion protein of PI5P4Kγ+ was harvested by binding to glutathione sepharose beads (Cytiva) and cleaved in situ with 50U of PreScission protease (Cytiva) for 4 h at 4 °C. The cleaved protein was further purified by size-exclusion chromatography (AKTA Pure, Cytiva). The protein purity was confirmed by sodium dodecyl sulphate–polyacrylamide gel electrophoresis, and the concentration was determined by colorimetric assay (Bio-Rad).
as §1

PI5P4Kα-WT = target: T5, PI5P4Kα-WT (Homo sapiens, UniProt P48426); assay: ADP-Glo inhibition assay; details: for PI5P4Kα pIC50: ADP-Glo
T5 sequence (P48426 1-406): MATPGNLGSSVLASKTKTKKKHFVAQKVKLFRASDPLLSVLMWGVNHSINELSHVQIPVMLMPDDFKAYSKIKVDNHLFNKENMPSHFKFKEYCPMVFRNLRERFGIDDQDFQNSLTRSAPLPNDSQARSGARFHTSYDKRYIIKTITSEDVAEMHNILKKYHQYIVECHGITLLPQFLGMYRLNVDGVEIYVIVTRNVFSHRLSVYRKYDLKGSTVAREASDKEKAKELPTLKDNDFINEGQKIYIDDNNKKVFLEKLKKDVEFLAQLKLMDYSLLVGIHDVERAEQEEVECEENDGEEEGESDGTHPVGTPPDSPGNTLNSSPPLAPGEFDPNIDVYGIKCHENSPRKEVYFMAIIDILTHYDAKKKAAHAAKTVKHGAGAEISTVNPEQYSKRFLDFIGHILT
Description: as §2

PI5P4Kγ [2] = system: PI5P4Kγ; parameters: method as in ref 30 (1), ref 23 (2); details: 32P-ATP/PI5P incorporation; ref 30 (1), ref 23 (2); cited from earlier work
PI5P4Kα [3] = system: PI5P4Kα; parameters: method as in ref 23 (a number printed in a supplementary file, which may have a reference list of its own: not looked up in the article's list); details: KINOMEscan @ 10 μM; cited from earlier work
PI5P4Kα [4] = details: bioluminescence assay; cited from earlier work
[5] = Liver microsomal stability; type: in vitro ADME; details: liver microsomes; Human liver microsomal hepatic stability; read-out: HLM t1/2
Kinetic solubility = type: physicochemical; details: PBS buffer, PBS pH 7.4
Description: Kinetic solubility analysis was performed by Charles River Laboratories Inc. (ADME-SOP-01). Compound in
DMSO at 10 mM was diluted to 200 µM in both DMSO and buffer (0.1 M PBS, pH 7.4, 2% DMSO final), and
an aliquot of the 200 µM DMSO solution was diluted to 10 µM, and all dilutions were equilibrated for 2 hours. […]
Compound 9 was purchased from Am binter (Amb16536894) and was determined by UPLC to have purity >95%.
All other compounds were synthesised as described below , and all tested compounds have purity >95% by UPLC

PI5P4Kγ-WT [6] = target: T2, PI5P4Kγ-WT; assay: Thermal shift assay; details: read-out: ΔTm PI5P4Kγ WT, thermal shift, compound 63 μM
Caco-2 cell permeability = type: in vitro ADME; details: human; for Papp A→B at 1 h, 10 µM: Caco-2, apical-to-basolateral
Description: Permeability: bi-directional Caco-2 cell permeability was performed by Charles River Laboratories Inc. (ADME-SOP-49). Briefly, compounds were administered at 10 µM (1% DMSO final) to the apical or basolateral side of a polarised Caco-2 cell monolayer, then incubated at 37 °C for 60 minutes before appearance on the opposite side of the monolayer was determined by mass spectrometry. The efflux ratio (ER) is calculated from the ratio of B-A […]

Plasma protein binding = type: in vitro ADME; details: Mouse plasma protein binding; read-out: mPPB (converted)
Description: Plasma protein binding analysis was performed by Charles River Laboratories Inc. (ADME-SOP-90). Briefly, compounds in DMSO (10 µM, 0.5% DMSO final) were added to mouse plasma and dialysed against buffer for 4 hours at 37 °C. The compound concentration in each of the plasma and buffer compartments was determined by mass spectrometry and used to calculate the percentage compound bound. […]

[7] = Chromatographic LogD (HPLC method); type: physicochemical; details: pH 7.4, read-out: mchrom log D7.4
Description: 5-100% gradient of MeCN in 50mM NH4OAc in H 2O adjusted to pH 7.4. […]

PI5P4Kγ [8] = target: PI5P4Kγ; parameters: method as in Rosenthal 2011, Davis 2011, Karaman 2008, Klaeger 2017; details: public kinase panel data; ref Rosenthal 2011, Davis 2011, Karaman 2008, Klaeger 2017; cited from earlier work

Row | SMILES | pIC50 (PI5P4Kα-WT) | PI5P4Kβ pIC50 (PI5P4Kβ-WT) | half-life at 1 µM [5] [min] | solubility at 2 h (Kinetic solubility) [µM] | fraction unbound at 4 h, 10 µM (Plasma protein binding) | IC50 (PI5P4Kγ+) [µM] | PI5P4Kα pIC50 (PI5P4Kα-WT) | chromatographic logD [7] | PI5P4Kγ pKD (PI5P4Kγ [8]) | further results
1 | Cn1nnnc1Sc1ncnc2scc(-c3cccc(S(C)(=O)=O)c3)c12 [Compound 2, NCT-504] | 5.70 |  |  |  |  |  |  |  |  | PI5P4Kβ % inh (PI5P4Kβ): <65% inh @ 10 uM (KINONMEscan); pIC50 (PI5P4Kγ-WT [1]): < 4.30; pIC50 (PI5P4Kβ-WT): < 4.60; pIC50 (PI5P4Kγ+): < 4.30; pIC50 (PI5P4Kγ [2]): 4.80; PI5P4Kα % inh (PI5P4Kα [3]): <35% inh @ 10 uM (KINONMEscan)
2 | CN(C)C/C=C/C(=O)Nc1ccc(C(=O)Nc2cccc(Nc3cc(-c4c[nH]c5ccccc45)ncn3)c2)cc1 [Compound 3, THZ-P1-2] |  |  |  |  |  |  |  |  |  | pIC50 (PI5P4Kγ-WT [1]): 5.89; pIC50 (PI5P4Kα [4]): 6.02; pIC50 (PI5P4Kγ+): 6.89
3 | Cc1ccc(-n2ccc3c(Nc4cccc(NC(=O)c5ccc(NC(=O)/C=C/CN(C)C)cc5)c4)ncnc32)cc1 [Compound 4] |  |  |  |  |  |  |  |  |  | pIC50 (PI5P4Kα [4]): 5.89
4 | FC(F)(F)c1ccccc1-c1nc(NCc2ccccn2)c2ccccc2n1 [Compound 14] |  | <4.6 | 31 | 9 (≈ 3.42 µg/mL) | < 0.01 | 3.16 | <4.3 |  |  | ΔTm at 63 µM (PI5P4Kγ-WT [6]): 6.3 °C; Papp A→B at 1 h, 10 µM (Caco-2 cell permeability): 85 ×10⁻⁶ cm/s
5 | Cc1cnc(-c2ccccc2C(F)(F)F)nc1NCc1ccccn1 [Compound 35] |  | <4.6 | 41 | 113 (≈ 38.9 µg/mL) | 0.03 | 10 | <4.3 | 4.2 |  | ΔTm at 63 µM (PI5P4Kγ-WT [6]): 3.9 °C; Papp A→B at 1 h, 10 µM (Caco-2 cell permeability): 106 ×10⁻⁶ cm/s; efflux ratio at 1 h, 10 µM (Caco-2 cell permeability; Caco-2 efflux ratio (B-A/A-B), read-out: ER): 0.5; PI5P4Kγ+ LE (PI5P4Kγ+; ligand efficiency from PI5P4Kγ+ pIC50): 0.28
6 | CC(=O)c1c(C)c2cnc(Nc3ccc(N4CCNCC4)cn3)nc2n(C2CCCC2)c1=O [Palbociclib, reference compound] |  |  |  |  |  |  |  |  | 5.8 | pIC50 (PI5P4Kβ-WT): < 4.60

Now from value to compound, other results behind:

Row | pIC50 (PI5P4Kα-WT) | PI5P4Kβ pIC50 (PI5P4Kβ-WT) | half-life at 1 µM [5] [min] | solubility at 2 h (Kinetic solubility) [µM] | fraction unbound at 4 h, 10 µM (Plasma protein binding) | IC50 (PI5P4Kγ+) [µM] | PI5P4Kα pIC50 (PI5P4Kα-WT) | chromatographic logD [7] | SMILES | PI5P4Kγ pKD (PI5P4Kγ [8]) | further results
7 |  | <4.6 | 37 | < 5 | < 0.01 |  | <4.3 | 5.7 | CC(C)c1ccccc1-c1nc(NCc2ccccn2)c2ccccc2n1 [Compound 22] |  | 
8 |  | <4.6 | 100 | 6 (≈ 2.29 µg/mL) | 0.01 |  | <4.3 | 3.2 | FC(F)(F)c1ccccc1-c1nc(NCc2ccccn2)c2cccnc2n1 [Compound 38] |  | 
9 | < 4.30 |  |  |  |  | 10 |  |  | Cc1nc(CN(C)c2ncnc3ccc(-c4ccc5c(c4)OCO5)cc23)cs1 [ML106, reference compound] | 6.4 | 
10 | < 4.30 |  |  |  |  | 3.98 |  |  | Cc1nc(CNc2ncnc3ccc(-c4ccc5c(c4)OCO5)cc23)cs1 [ML197, reference compound] | 6.6 | 
